Consider three compounds from patent US11510428B2, “Rebaudioside B and derivatives” (SWEET GREEN FIELDS INTERNATIONAL CO., LIMITED, priority 2011, dated 2022).

The nature of experiment [1]: Sensory evaluation after adding Reb D to samples of Example 9 (Example 10). It is filed as in vivo, human. To be noted: total concentration of rebaudiosides 400 ppm.
Experiment [2] in a line: Taste comparison between RB and RA by experts (Example 7). The experiment is classed as in vivo, human. To be noted: 400 ppm aqueous solution. From the text:
Taste comparison between RB (prepared in Example 1, first part) and RA Purity of RA was 99.0% by HPLC and RB was 99.1% by HPLC.
RB sample: 400 ppm aqueous solution
RA sample: 400 ppm aqueous solution

The conditions of experiment [3]: cited from earlier work.
Experiment [4] in a line: General taste and sweetness statements on steviol glycosides, RA, RB and RB salt (background and description). The experiment is classed as in vivo.

On to `C=C1C[C@@]23CC[C@H]4[C@@](C)(CCC[C@@]4(C)C(=O)O[C@@H]4O[C@H](CO)[C@@H](O)[C@H](O)[C@H]4O[C@@H]4O[C@H](CO)[C@@H](O)[C@H](O)[C@H]4O)[C@@H]2CC[C@]1(O[C@@H]1O[C@H](CO)[C@@H](O)[C@H](O[C@@H]2O[C@H](CO)[C@@H](O)[C@H](O)[C@H]2O)[C@H]1O[C@@H]1O[C@H](CO)[C@@H](O)[C@H](O)[C@H]1O)C3` [Reb D, Rebaudioside D], for which the “Sensory taste profile on addition of Reb D” value in experiment [1] was “can improve sensory taste profile”.

On to `C=C1C[C@@]23CC[C@H]4[C@@](C)(CCC[C@@]4(C)C(=O)O[C@@H]4O[C@H](CO)[C@@H](O)[C@H](O)[C@H]4O)[C@@H]2CC[C@]1(O[C@@H]1O[C@H](CO)[C@@H](O)[C@H](O[C@@H]2O[C@H](CO)[C@@H](O)[C@H](O)[C@H]2O)[C@H]1O[C@@H]1O[C@H](CO)[C@@H](O)[C@H](O)[C@H]1O)C3` [RA, Rebaudioside A], for which the Bitterness entry in experiment [2] (7/10 experts) is on record as “strong bitterness profile”. Also, the Bitterness and aftertaste result in experiment [3] (100% purity RA, e.g. 500 ppm aqueous solution) is recorded as “appear strongly at higher concentrations”. The Taste quality entry in experiment [3] (increased sweetness and decreased bitterness, Phytochemistry 68, 2007) is given as “better than stevioside”. In addition, the “Concentration that provides maximum sweetness” value in experiment [4] (aqueous solution) is reported as “About 250 ppm”. In addition, the “Concentration above which there is no increased perceived sweetness” value in experiment [4] (in food products) was “about 500 ppm”.

For the compound Rebaudioside B [RB], in experiment [2], the Taste profile entry is reported as “tasted better than RA”. In addition, in experiment [2] (7/10 experts), the Bitterness result is on record as “less bitterness than RA” and the Sweetness result was “lesser sweetness than RA”. Moreover, the On-set profile entry in experiment [4] (compared with other steviol glycosides) is given as “short on-set profile”.
